Experiment [1] addresses T1, 5-hydroxytryptamine receptor 1A (Rattus norvegicus, UniProt P19327).
T1 sequence (P19327 whole entry): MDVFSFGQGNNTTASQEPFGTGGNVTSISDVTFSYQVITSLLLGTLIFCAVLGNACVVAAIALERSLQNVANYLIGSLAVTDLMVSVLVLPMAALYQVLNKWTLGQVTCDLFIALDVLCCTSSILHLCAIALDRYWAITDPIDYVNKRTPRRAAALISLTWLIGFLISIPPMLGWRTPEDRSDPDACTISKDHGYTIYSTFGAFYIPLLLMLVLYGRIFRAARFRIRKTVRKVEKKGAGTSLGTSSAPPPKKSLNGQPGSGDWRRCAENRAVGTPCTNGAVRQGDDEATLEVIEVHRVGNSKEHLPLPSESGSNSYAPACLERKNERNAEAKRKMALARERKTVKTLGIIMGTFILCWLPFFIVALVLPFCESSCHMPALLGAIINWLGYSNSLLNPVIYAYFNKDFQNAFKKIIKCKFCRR
In words: biochemical.
Description: In vitro binding affinity to 5-hydroxytryptamine 1A receptor in rat hippocampal homogenate by [125I](R)-(+)-trans-8-OH-PIPAT displacement.

Experiment [2] addresses T1, 5-hydroxytryptamine receptor 1A. The experiment in a line: biochemical. The source holds these as a separate data set.
Description: In vitro binding affinity to 5-hydroxytryptamine 1A receptor using [125I](R)-(+)-trans-8-OH-PIPAT as radioligand in rat hippocampal homogenate

Description for Rattus norvegicus: Tested for the dissociation constant for [125I]MPPI to rat hippocampal homogenates

The Ki is a measure of affinity in units of concentration, obtained from inhibition or displacement. Read a low Ki as higher affinity. Compound `CCCCc1ccc(C(=O)N(CCN2CCN(c3ccccc3OC)CC2)c2ccccn2)cc1` registered an inhibition constant Ki in experiment [1] of 13.2 nM.

The compound `CCCCCCCc1ccc(C(=O)N(CCN2CCN(c3ccccc3OC)CC2)c2ccccn2)cc1` yielded a Ki in experiment [1] of 81.8 nM.

`COc1ccccc1N1CCN(CCN(C(=O)c2ccc(N=[N+]=[N-])c(I)c2)c2ccccn2)CC1` gave a Ki in experiment [1] of 25 nM.

In the case of `COc1ccccc1N1CCN(CCN(C(=O)c2cccc(C)c2)c2ccccn2)CC1`, the inhibition constant (Ki) in experiment [1] turned out to be 16.1 nM.

As to `CCCCCc1ccc(C(=O)N(CCN2CCN(c3ccccc3OC)CC2)c2ccccn2)cc1`, the affinity in experiment [1], expressed as Ki, was 75 nM.

The compound `COc1ccccc1N1CCN(CCN(C(=O)c2ccc(N)cc2)c2ccccn2)CC1` had a Ki in experiment [1] of 10 nM.

Turning to `COc1ccccc1N1CCN(CCN(C(=O)c2ccc(C)cc2)c2ccccn2)CC1`, the Ki in experiment [1] came out at 2.2 nM.

The Kd is the constant that tells how readily two partners part at equilibrium. High values mean a looser complex, low ones a tighter complex. As for `COc1ccccc1N1CCN(CCN(C(=O)c2ccc(I)cc2)c2ccccn2)CC1`, in the experiment filed under Rattus norvegicus, the Kd was found to be 0.3 nM.

Consider `CCCCCCc1ccc(C(=O)N(CCN2CCN(c3ccccc3OC)CC2)c2ccccn2)cc1`, for which the Ki in experiment [1] was found to be 57.9 nM.

Regarding `COc1ccccc1N1CCN(CCN(C(=O)c2ccccc2)c2ccccn2)CC1`, in experiment [1], the affinity, expressed as Ki, was 2.5 nM.

In experiment [1], `COc1ccccc1N1CCN(CCN(C(=O)c2ccc(CCl)cc2)c2ccccn2)CC1` gave a Ki of 3.5 nM.

For `COc1ccccc1N1CCN(CCN(C(=O)c2ccc(N)c(I)c2)c2ccccn2)CC1`, the Ki in experiment [1] was found to be 17.7 nM.

The compound `COc1ccccc1N1CCN(CCN(C(=O)c2ccc(C(C)(C)C)cc2)c2ccccn2)CC1` registered a Ki in experiment [1] of 27 nM.

Regarding `CCc1ccc(C(=O)N(CCN2CCN(c3ccccc3OC)CC2)c2ccccn2)cc1`, the affinity in experiment [1] corresponds to a Ki of 9.3 nM.

In experiment [1], `COc1ccccc1N1CCN(CCN(C(=O)c2ccc(NC(=O)CCl)cc2)c2ccccn2)CC1` registered a Ki of 22 nM.

As to `COc1ccccc1N1CCN(CCN(C(=O)c2ccc(F)cc2)c2ccccn2)CC1`, the Ki in experiment [1] stood at 3.2 nM. In the experiment listed under Rattus norvegicus, the affinity, expressed as Kd, was 0.3 nM.

What is called IC50 is the midpoint of a concentration-inhibition curve. A lower IC50 goes with higher potency. Turning to `COc1ccccc1N1CCN(C[C@@H](C(=O)NC(C)(C)C)c2ccccc2)CC1`, the half-maximal inhibitory concentration (IC50) in experiment [2] turned out to be 15 nM.

The compound `CCCc1ccc(C(=O)N(CCN2CCN(c3ccccc3OC)CC2)c2ccccn2)cc1` returned an inhibition constant Ki in experiment [1] of 10.3 nM.
